Laboratory results taken from patent US11542274B1, “Therapeutic compounds and methods of use thereof” (AGENCY FOR SCIENCE, TECHNOLOGY AND RESEARCH (A*STAR), priority 2019, dated 2023).

Tested on: RAMOS cells (Burkitt's lymphoma cell line)
Test: Anti-proliferation assay (CellTiter-Glo)
Format: cell-based
Conditions: 3 days
Outline: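 RAMOS cells (3000/well) exposed to compound for 3 days at 37 °C, 5% CO2. Viability read by CellTiter-Glo luminescence; GI50, concentration giving 50% of maximal proliferation inhibition, from nonlinear regression.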

| Compound | GI50 |
| --- | --- |
| (S)-2-(4-(4-chlorophenyl)-2,3,9-trimethyl-6H-thieno[3,2-f][1,2,4]triazolo[4,3-a][1,4]diazepin-6-yl)-N-(2-oxo-2-(4-(5-(2-oxoindolin-5-yl)pyridin-2-yl)piperazin-1-yl)ethyl)acetamide [Compound 122] | 0.001 to 0.1 µM |

Same assay, conditions: Homo sapiens, 72 h, 3 days

| Compound | GI50 |
| --- | --- |
| Cc1sc2c(c1C)C(c1ccc(Cl)cc1)=N[C@@H](CC(=O)NCCOCCOc1ccc(-c3ccc4c(c3)CC(=O)N4)cn1)c1nnc(C)n1-2 [Compound 132, (S)-2-(4-(4-chlorophenyl)-2,3,9-trimethyl-6H-thieno[3,2-f][1,2,4]triazolo[4,3-a][1,4]diazepin-6-yl)-N-(2-(2-((5-(2-oxoindolin-5-yl)pyridin-2-yl)oxy)ethoxy)ethyl)acetamide] | 0.001 to 0.1 µM |
| Cc1sc2c(c1C)C(c1ccc(Cl)cc1)=N[C@@H](CC(=O)NCCOCCNc1ncc(-c3ccc4c(c3)CC(=O)N4)cn1)c1nnc(C)n1-2 [Compound 133, (S)-2-(4-(4-chlorophenyl)-2,3,9-trimethyl-6H-thieno[3,2-f][1,2,4]triazolo[4,3-a][1,4]diazepin-6-yl)-N-(2-(2-((5-(2-oxoindolin-5-yl)pyrimidin-2-yl)amino)ethoxy)ethyl)acetamide] | 0.001 to 0.1 µM |
| Cc1sc2c(c1C)C(c1ccc(Cl)cc1)=N[C@@H](CC(=O)NCCC1CCN(c3ccc(-c4ccc5c(c4)CC(=O)N5)cn3)CC1)c1nnc(C)n1-2 [Compound 134, (S)-2-(4-(4-chlorophenyl)-2,3,9-trimethyl-6H-thieno[3,2-f][1,2,4]triazolo[4,3-a][1,4]diazepin-6-yl)-N-(2-(1-(5-(2-oxoindolin-5-yl)pyridin-2-yl)piperidin-4-yl)ethyl)acetamide] | 0.001 to 0.1 µM |
| Cc1sc2c(c1C)C(c1ccc(Cl)cc1)=N[C@@H](CC(=O)NCCOCCNc1ncccc1-c1ccc3c(c1)CC(=O)N3)c1nnc(C)n1-2 [Compound 135, (S)-2-(4-(4-chlorophenyl)-2,3,9-trimethyl-6H-thieno[3,2-f][1,2,4]triazolo[4,3-a][1,4]diazepin-6-yl)-N-(2-(2-((3-(2-oxoindolin-5-yl)pyridin-2-yl)amino)ethoxy)ethyl)acetamide] | 0.001 to 0.1 µM |
| Cc1sc2c(c1C)C(c1ccc(Cl)cc1)=N[C@@H](CC(=O)NC1CCN(c3ncccc3-c3ccc4c(c3)CC(=O)N4)CC1)c1nnc(C)n1-2 [Compound 136, (S)-2-(4-(4-chlorophenyl)-2,3,9-trimethyl-6H-thieno[3,2-f][1,2,4]triazolo[4,3-a][1,4]diazepin-6-yl)-N-(1-(3-(2-oxoindolin-5-yl)pyridin-2-yl)piperidin-4-yl)acetamide] | 0.001 to 0.1 µM |
| Cc1sc2c(c1C)C(c1ccc(Cl)cc1)=N[C@@H](CC(=O)N1CCC3(CCN(c4ncccc4-c4ccc5c(c4)CC(=O)N5)C3)C1)c1nnc(C)n1-2 (stereo partly shown) [Compound 137] | 0.1 to 1 µM |
| Cc1sc2c(c1C)C(c1ccc(Cl)cc1)=N[C@@H](CC(=O)NC1CC3(C1)CC(Nc1ncccc1-c1ccc4c(c1)CC(=O)N4)C3)c1nnc(C)n1-2 (stereo partly drawn) [Compound 138, (S)-2-(4-(4-chlorophenyl)-2,3,9-trimethyl-6H-thieno[3,2-f][1,2,4]triazolo[4,3-a][1,4]diazepin-6-yl)-N-(6-((3-(2-oxoindolin-5-yl)pyridin-2-yl)amino)spiro[3.3]heptan-2-yl)acetamide] | 0.001 to 0.1 µM |
| Cc1sc2c(c1C)C(c1ccc(Cl)cc1)=N[C@@H](CC(=O)NCCCCNc1ncccc1-c1ccc3c(c1)CC(=O)N3)c1nnc(C)n1-2 [Compound 139, (S)-2-(4-(4-chlorophenyl)-2,3,9-trimethyl-6H-thieno[3,2-f][1,2,4]triazolo[4,3-a][1,4]diazepin-6-yl)-N-(4-((3-(2-oxoindolin-5-yl)pyridin-2-yl)amino)butyl)acetamide] | 0.1 to 1 µM |
| Cc1sc2c(c1C)C(c1ccc(Cl)cc1)=N[C@@H](CC(=O)Nc1ccc(OCCOCCNc3ncccc3-c3ccc4c(c3)CC(=O)N4)cc1)c1nnc(C)n1-2 [Compound 140, (S)-2-(4-(4-chlorophenyl)-2,3,9-trimethyl-6H-thieno[3,2-f][1,2,4]triazolo[4,3-a][1,4]diazepin-6-yl)-N-(4-(2-(2-((3-(2-oxoindolin-5-yl)pyridin-2-yl)amino)ethoxy)ethoxy)phenyl)acetamide] | 0.1 to 1 µM |
